Each structure is given as a SMILES string. In brackets after ≈: the same amount, converted by molar mass.

3 compounds from ChEMBL document CHEMBL1141782, “Antineoplastic agents. 553. The Texas grasshopper Brachystola magna” (2005) can be followed below.

Holding throughout (format): functional
In one test the test system is NCI-H460. Description: Cytotoxicity against human NCI-H460 cells after 48 hrs by SRB assay. To be noted: NCI-H460, 48 h, read-out: ED50 (the source's name). On the technique in general: The SRB assay estimates cell density from bound dye.
A further test concerns SF-268. As to the kind of experiment: Cytotoxicity against human SF268 cells after 48 hrs by SRB assay. To be noted: SF-268, 48 h, read-out: ED50 (the source's name).
Another test relates to P388. Description: Cytotoxicity against mouse P388 cells. As to conditions: read-out: ED50 (the source's name).
Another test deals with MCF7. Description: Cytotoxicity against human MCF7 cells after 48 hrs by SRB assay. To be noted: MCF7, 48 h, read-out: ED50 (the source's name).
The test system of a further test is DU-145. Description: Cytotoxicity against human DU145 cells after 48 hrs by SRB assay. As to conditions: DU-145, 48 h, read-out: ED50 (the source's name).
A further test concerns KM-20L2. As to the kind of experiment: Cytotoxicity against human KM20L2 cells after 48 hrs by SRB assay. To be noted: KM-20L2, 48 h, read-out: ED50 (the source's name).
The test system of another test is BXPC-3. Description: Cytotoxicity against human BxPC3 cells after 48 hrs by SRB assay. To be noted: BXPC-3, 48 h, read-out: ED50 (the source's name).

With `O=C1N[C@@H]2C(=C[C@H](O)[C@@H](O)[C@H]2O)c2cc3c(c(O)c21)OCO3` [NARCICLASINE], the EC50 is 0.014 µg/mL (≈ 0.0456 µM) in the test with NCI-H460; 0.018 µg/mL (≈ 0.0586 µM) with SF-268; 0.018 µg/mL (≈ 0.0586 µM) in the test with P388; 0.014 µg/mL (≈ 0.0456 µM) in the test on MCF7; 0.012 µg/mL (≈ 0.0391 µM) in the test on DU-145; 0.023 µg/mL (≈ 0.0749 µM) in the test on KM-20L2. In addition, the EC50 with BXPC-3 amounted to 0.024 µg/mL (≈ 0.0781 µM).
As for `O=C1N[C@H]2[C@H](O)[C@H](O)[C@@H](O)[C@H](O)[C@@H]2c2cc3c(c(O)c21)OCO3` [PANCRATISTATIN], the EC50 with NCI-H460 is 0.029 µg/mL (≈ 0.0892 µM); in the test with SF-268, 0.032 µg/mL (≈ 0.0984 µM); with P388, 0.048 µg/mL (≈ 0.148 µM); with MCF7, 0.035 µg/mL (≈ 0.108 µM); with DU-145 it was 0.037 µg/mL (≈ 0.114 µM); in the test on KM-20L2, 0.048 µg/mL (≈ 0.148 µM). The EC50 in the test on BXPC-3 was determined as 0.043 µg/mL (≈ 0.132 µM).
Turning to `[O-]c1cc2c3c(c1)c1cc4c(cc1c[n+]3CC2)OCO4` [UNGEREMINE], the EC50 stood at 0.65 µg/mL (≈ 2.45 µM) with NCI-H460; 0.057 µg/mL (≈ 0.215 µM) with SF-268; 1.2 µg/mL (≈ 4.52 µM) with P388; 0.48 µg/mL (≈ 1.81 µM) in the test with MCF7; 0.029 µg/mL (≈ 0.109 µM) in the test with DU-145; 0.5 µg/mL (≈ 1.88 µM) in the test on KM-20L2. The EC50 in the test with BXPC-3 is 0.87 µg/mL (≈ 3.28 µM).
